As a reminder, the inhibition is how much of the control response was suppressed.

Our source for the Activity and inhibition values is ChEMBL document CHEMBL1150921, “Organochlorine compounds from a terrestrial higher plant: structures and origin of chlorinated orcinol derivatives from diseased bulbs of Lilium maximowiczii” (1998).

The source made the active and inactive calls. No cut-off for these calls is given here.

The subject of test [1] is Bipolaris leersiae. Briefly: Antifungal activity against Bipolaris leersiae assessed as inhibition of conidial germination at 300 ppm after 24 hrs by microscopy. In kind it is functional.
The test system of test [2] is Bipolaris leersiae. Put plainly: Antifungal activity against Bipolaris leersiae assessed as inhibition of conidial germination at 50 ppm after 24 hrs by microscopy. In kind it is functional, organism-based.
Test [3] has as its system Bipolaris leersiae. Briefly: Antifungal activity against Bipolaris leersiae assessed as inhibition of conidial germination at 10 ppm after 24 hrs by microscopy. Format: functional.
For test [4], the system named is Bipolaris leersiae. Put plainly: Antifungal activity against Bipolaris leersiae assessed as inhibition of conidial germination at 500 ppm after 24 hrs by microscopy. Format: functional.
Test [5] deals with Bipolaris leersiae. Put plainly: Antifungal activity against Bipolaris leersiae assessed as inhibition of conidial germination at 100 ppm after 24 hrs by microscopy. Format: functional.
The subject of test [6] is Bipolaris leersiae. Put plainly: Antifungal activity against Bipolaris leersiae assessed as inhibition of conidial germination at 1000 ppm after 24 hrs by microscopy. In kind it is functional, organism-based.

In the case of `COc1c(O)c(C)c(Cl)c(O)c1Cl`, the result in the test with Bipolaris leersiae [1], in the test with Bipolaris leersiae [2], in the test with Bipolaris leersiae [4] and in the test with Bipolaris leersiae [5] was Active. For the same molecule, the inhibition at 10 ppm in the test on Bipolaris leersiae [3] was 80%.
On to `Cc1cc(O)cc(O)c1` [ORCINOL], for which, in the test with Bipolaris leersiae [1], the inhibition at 300 ppm stood at 30%. In addition, the inhibition at 500 ppm in the test with Bipolaris leersiae [4] came to 80%. The inhibition at 100 ppm with Bipolaris leersiae [5] turned out to be 30%. Further, in the test with Bipolaris leersiae [6], the result was Active.
Turning to `Cc1cc(O)c(Cl)c(O)c1`, the result with Bipolaris leersiae [1] and in the test with Bipolaris leersiae [4] was Active. Also, the inhibition at 100 ppm in the test with Bipolaris leersiae [5] is 80%.
`Cc1cc(O)cc(O)c1Cl`: the result with Bipolaris leersiae [1] and in the test on Bipolaris leersiae [4] was Active. Besides, the inhibition at 100 ppm in the test on Bipolaris leersiae [5] stood at 80%.
`COc1c(Cl)c(C)c(Cl)c(O)c1Cl`: the result in the test on Bipolaris leersiae [1], in the test with Bipolaris leersiae [2], in the test on Bipolaris leersiae [3], in the test on Bipolaris leersiae [4] and with Bipolaris leersiae [5] was Active.
For `COc1cc(OC)c(Cl)c(C)c1Cl`, in the test on Bipolaris leersiae [5], the outcome was inactive.
`COc1c(O)c(C)c(Cl)c(OC)c1Cl`: the outcome in the test with Bipolaris leersiae [1], in the test with Bipolaris leersiae [2], in the test with Bipolaris leersiae [4] and in the test with Bipolaris leersiae [5] was Active.
